Laboratory results from patent US9469615B2, “Quinoxalines and AZA-quinoxalines as CRTH2 receptor modulators” (Merck Sharp & Dohme Corp., priority 2010, dated 2016).

Target: T1, hCRTH2 (Homo sapiens, UniProt Q9Y5Y4)
T1 construct: expressed in transfected cells; host or cells: HEK (human embryonic kidney) cells expressing hCRTH2; membrane preparation
T1 sequence (Q9Y5Y4 1-395): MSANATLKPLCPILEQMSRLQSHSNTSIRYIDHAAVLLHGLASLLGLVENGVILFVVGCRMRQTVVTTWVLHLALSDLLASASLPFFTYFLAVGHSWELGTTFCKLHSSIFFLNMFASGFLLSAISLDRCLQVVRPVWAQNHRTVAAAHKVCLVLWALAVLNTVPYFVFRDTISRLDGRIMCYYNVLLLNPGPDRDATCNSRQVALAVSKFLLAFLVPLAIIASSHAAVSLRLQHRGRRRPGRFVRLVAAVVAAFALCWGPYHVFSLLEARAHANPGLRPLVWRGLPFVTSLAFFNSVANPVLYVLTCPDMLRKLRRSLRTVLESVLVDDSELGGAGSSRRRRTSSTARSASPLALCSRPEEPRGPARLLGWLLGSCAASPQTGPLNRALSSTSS
Experiment: Radioligand binding assay ([3H]PGD2 competition, HEK-hCRTH2 membranes)
Method in brief: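 Membranes (8-20 μg protein) from HEK-hCRTH2 cells were incubated 60 min at room temperature with 3.0 nM [3H]PGD2 in 50 mM Tris-HCl pH 7.4, 1 mM EDTA, 2 mM MnCl2, 1% DMSO. Non-specific binding defined with 10 μM PGD2. Bound radioactivity counted after filtration.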

Ki ([3H]PGD2 competition, Table B) [nM] | Ki ([3H]PGD2 binding, values in text) [nM] | SMILES
0.1 to 2 |  | O=C(O)CCCCc1nc2cc(C(=O)N3CC(c4cccc(Cl)c4)C3)ccc2nc1-c1ccc(Cl)cc1 [compound 425, 5-(3-(4-chlorophenyl)-7-(3-(3-chlorophenyl)azetidine-1-carbonyl)quinoxalin-2-yl)pentanoic acid]
0.1 to 2 |  | O=C(O)CCCCc1nc2cc(C(=O)N3CC(c4ccc(Cl)cc4)C3)ccc2nc1-c1ccc(Cl)cc1 [compound 426, 5-(3-(4-chlorophenyl)-7-(3-(4-chlorophenyl)azetidine-1-carbonyl)quinoxalin-2-yl)pentanoic acid]
2.1 to 20 |  | CC(CCCc1nc2cc(C(=O)N[C@H](C)c3ccc(Cl)cc3)ccc2nc1-c1ccc(F)cc1)C(=O)O (stereo partly drawn) [compound 427, 5-(7-(((R)-1-(4-chlorophenyl)ethyl)carbamoyl)-3-(4-fluorophenyl)quinoxalin-2-yl)-2-methylpentanoic acid]
20.1 to 200 |  | CC(CCCc1nc2cc(C(=O)N[C@@H](C)c3ccc(Cl)cc3)ccc2nc1-c1ccc(F)cc1)C(=O)O (stereo partly drawn) [compound 428, 5-(7-(((S)-1-(4-chlorophenyl)ethyl)carbamoyl)-3-3-(4-fluorophenyl)quinoxalin-2-yl)-2-methylpentanoic acid]
0.1 to 2 |  | CC(CCc1nc2cc(C(=O)N[C@H](C)c3ccc(F)cc3)ccc2nc1-c1ccc(Cl)cc1)CC(=O)O (stereo partly drawn) [compound 429, 5-(3-(4-chlorophenyl)-7-(((R)-1-(4-fluorophenyl)ethyl)carbamoyl)quinoxalin-2-yl)-3-methylpentanoic acid]
2.1 to 20 |  | CC(CCc1nc2cc(C(=O)N[C@@H](C)c3ccc(F)cc3)ccc2nc1-c1ccc(F)cc1)CC(=O)O (stereo partly drawn) [compound 430, 5-(3-(4-fluorophenyl)-7-(((S)-1-(4-fluorophenyl)ethyl)carbamoyl)quinoxalin-2-yl)-3-methylpentanoic acid]
2.1 to 20 |  | CC(CCc1nc2cc(C(=O)N[C@@H]3CCCc4ccccc43)ccc2nc1-c1ccc(F)cc1)CC(=O)O (stereo partly drawn) [compound 431, 5-(3-(4-fluorophenyl)-7-(((R)-1,2,3,4-tetrahydronaphthalen-1-yl)carbamoyl)quinoxalin-2-yl)-3-methylpentanoic acid]
0.1 to 2 |  | CC(CCc1nc2cc(C(=O)N[C@H](C)c3ccc(F)cc3)ccc2nc1-c1ccc(F)cc1)CC(=O)O (stereo partly drawn) [compound 432, 5-(3-(4-fluorophenyl)-7-(((R)-1-(4-fluorophenyl)ethyl)carbamoyl)quinoxalin-2-yl)-3-methylpentanoic acid]
2.1 to 20 |  | CC(CCc1nc2cc(C(=O)N[C@H]3CCCc4ccccc43)ccc2nc1-c1ccc(F)cc1)CC(=O)O (stereo partly drawn) [compound 433, 5-(3-(4-fluorophenyl)-7-(((S)-1,2,3,4-tetrahydronaphthalen-1-yl)carbamoyl)quinoxalin-2-yl)-3-methylpentanoic acid]
0.1 to 2 |  | C[C@@H](NC(=O)c1ccc2nc(-c3ccc(Cl)cc3)c(CCCCC(=O)O)nc2c1)c1ccc(F)cn1 [compound 434, (R)-5-(3-(4-chlorophenyl)-7-((1-(5-fluoropyridin-2-yl)ethyl)carbamoyl)quinoxalin-2-yl)pentanoic acid]
0.1 to 2 |  | C[C@H](NC(=O)c1ccc2nc(-c3ccc(Cl)cc3)c(CCCCC(=O)O)nc2c1)c1ccc(F)cn1 [compound 435, (S)-5-(3-(4-chlorophenyl)-7-((1-(5-fluoropyridin-2-yl)ethyl)carbamoyl)quinoxalin-2-yl)pentanoic acid]
20.1 to 200 |  | O=C(O)CCCCc1nc2cc(C(=O)N3CCn4c(nnc4C(F)(F)F)C3)ccc2nc1-c1ccc(Cl)cc1 [compound 436, 5-(3-(4-chlorophenyl)-7-(3-(trifluoromethyl)-5,6,7,8-tetrahydro-[1,2,4]triazolo[4,3-a]pyrazine-7-carbonyl)quinoxalin-2-yl)pentanoic acid]
20.1 to 200 |  | C[C@H](CCc1nc2cc(C(=O)N[C@H](C)c3ccc(F)cc3)ccc2nc1-c1ccc(F)cc1)CC(=O)O [compound 437, (R)-5-(3-(4-fluorophenyl)-7-(((R)-1-(4-fluorophenyl)ethyl)carbamoyl)quinoxalin-2-yl)-3-methylpentanoic acid]
2.1 to 20 | 4.2 | C[C@@H](CCc1nc2cc(C(=O)N[C@H](C)c3ccc(F)cc3)ccc2nc1-c1ccc(F)cc1)CC(=O)O [compound 438, (S)-5-(3-(4-fluorophenyl)-7-(((R)-1-(4-fluorophenyl)ethyl)carbamoyl)quinoxalin-2-yl)-3-methylpentanoic acid]
2.1 to 20 |  | C[C@H](CCc1nc2cc(C(=O)N[C@@H]3CCCc4ccccc43)ccc2nc1-c1ccc(F)cc1)CC(=O)O [compound 439, (R)-5-(3-(4-fluorophenyl)-7-(((R)-1,2,3,4-tetrahydronaphthalen-1-yl)carbamoyl)quinoxalin-2-yl)-3-methylpentanoic acid]
0.1 to 2 |  | C[C@@H](CCc1nc2cc(C(=O)N[C@@H]3CCCc4ccccc43)ccc2nc1-c1ccc(F)cc1)CC(=O)O [compound 440, (S)-5-(3-(4-fluorophenyl)-7-(((R)-1,2,3,4-tetrahydronaphthalen-1-yl)carbamoyl)quinoxalin-2-yl)-3-methylpentanoic acid]

Ki ([3H]PGD2 competition, Table B) [nM] | Ki ([3H]PGD2 binding, values in text) [nM] | SMILES
2.1 to 20 |  | C[C@H](CCc1nc2cc(C(=O)N[C@H](C)c3ccc(F)cc3)ccc2nc1-c1ccc(Cl)cc1)CC(=O)O [compound 441, (R)-5-(3-(4-chlorophenyl)-7-(((R)-1-(4-fluorophenyl)ethyl)carbamoyl)quinoxalin-2-yl)-3-methylpentanoic acid]
0.1 to 2 |  | C[C@@H](CCc1nc2cc(C(=O)N[C@H](C)c3ccc(F)cc3)ccc2nc1-c1ccc(Cl)cc1)CC(=O)O [compound 442]
2.1 to 20 |  | O=C(NCc1ccccc1)c1ccc2nc(-c3ccc(F)cc3)c(CCCC(F)(F)C(=O)O)nc2c1 [compound 443, 5-(7-(benzylcarbamoyl)-3-(4-fluorophenyl)quinoxalin-2-yl)-2,2-difluoropentanoic acid]
20.1 to 200 |  | Cc1ccc(CNC(=O)c2ccc3nc(-c4ccccc4)c(CCCC(F)(F)C(=O)O)nc3c2)cc1 [compound 444]
2.1 to 20 |  | O=C(O)Cc1cc(F)cc(CCc2nc3cc(C(=O)N4CCN(c5ccccc5)CC4)ccc3nc2-c2ccc(Cl)cc2)c1 [compound 445]
2.1 to 20 |  | O=C(O)Cc1cc(F)cc(CCc2nc3cc(C(=O)NCc4ccc(Cl)cc4)ccc3nc2-c2ccc(Cl)cc2)c1 [compound 446]
0.1 to 2 |  | CN(Cc1ccc(F)cc1)C(=O)c1ccc2nc(-c3ccc(Cl)cc3)c(CCc3cc(F)cc(CC(=O)O)c3)nc2c1 [compound 447, 2-(3-(2-(3-(4-chlorophenyl)-7-((4-fluorobenzyl)(methyl)carbamoyl)quinoxalin-2-yl)ethyl)-5-fluorophenyl)acetic acid]
0.1 to 2 |  | CN(Cc1ccccc1)C(=O)c1ccc2nc(-c3ccc(Cl)cc3)c(CCc3cc(F)cc(CC(=O)O)c3)nc2c1 [compound 448, 2-(3-(2-(7-(benzyl(methyl)carbamoyl)-3-(4-chlorophenyl)quinoxalin-2-yl)ethyl)-5-fluorophenyl) acetic acid]
2.1 to 20 |  | C[C@@H](NC(=O)c1ccc2nc(-c3ccc(Cl)cc3)c(CCc3cc(F)cc(CC(=O)O)c3)nc2c1)c1ccc(F)cc1 [compound 449]
2.1 to 20 |  | C[C@H](NC(=O)c1ccc2nc(-c3ccc(Cl)cc3)c(CCc3cc(F)cc(CC(=O)O)c3)nc2c1)c1ccc(F)cc1 [compound 450, (S)-2-(3-(2-(3-(4-chlorophenyl)-7-((1-(4-fluorophenyl)ethyl)carbamoyl)quinoxalin-2-yl)ethyl)-5-fluorophenyl)acetic acid]
2.1 to 20 |  | N#Cc1ccc(CNC(=O)c2ccc3nc(-c4ccc(Cl)cc4)c(CCc4cc(F)cc(CC(=O)O)c4)nc3c2)cc1 [compound 451, 2-(3-(2-(3-(4-chlorophenyl)-7-((4-cyanobenzyl)carbamoyl)quinoxalin-2-yl)ethyl)-5-fluorophenyl)acetio acid]
2.1 to 20 |  | O=C(O)Cc1cc(F)cc(CCc2nc3cc(C(=O)N4CC(c5ccc(F)c(F)c5)C4)ccc3nc2-c2ccc(Cl)cc2)c1 [compound 452, 2-(3-(2-(3-(4-chlorophenyl)-7-(3-(3,4-difluorophenyl)azetidine-l-carbonyl)quinoxalin-2-yl)ethyl)-5-fluorophenyl) aceticacid]
2.1 to 20 |  | CC(CCCc1nc2cc(C(=O)N[C@@H]3CCCc4ccccc43)ccc2nc1-c1ccccc1)C(=O)O (stereo partly drawn) [compound 453, 2-methyl-5-(3-phenyl-7-(((R)-1-yl)carbamoyl)quinoxalin-2-yl)pentanoic acid]
2.1 to 20 |  | CC(CCCc1nc2cc(C(=O)N[C@@H]3CCCc4ccccc43)ccc2nc1-c1ccc(F)cc1)C(=O)O (stereo partly drawn) [compound 454]
2.1 to 20 |  | CC(CCCc1nc2cc(C(=O)N[C@@H]3CCCc4cc(Cl)ccc43)ccc2nc1-c1ccc(F)cc1)C(=O)O (stereo partly drawn) [compound 455, 5-(7-(((R)-6-chloro-1,2,3,4-tetrahydronaphthalen-1-yl)carbamoyl)-3-(4-fluorophenyl)quinoxalin-2-yl)-2-methylpentanoic acid]
2.1 to 20 |  | CC(CCCc1nc2cc(C(=O)N[C@@H]3CCc4cc(Cl)ccc43)ccc2nc1-c1ccc(F)cc1)C(=O)O (stereo partly drawn) [compound 456, 5-(7-(((R)-5-chloro-2,3-dihydro-1H-inden-1-yl)carbamoyl)-3-(4-fluorophenyl)quinoxalin-2-yl)-2-methylpentanoic acid]
